The target in one assay is BRD4(BD1) (Homo sapiens (Human), UniProt O60885). The assay can be described thus: In vitro enzyme inhibition assay (BRD4 AlphaScreen). Type of assay: binding. Put shortly: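 AlphaScreen proximity readout, using streptavidin donor and Ni-chelate acceptor beads at 5 μg/mL final, monitors biotin-H4 tetraacetylated peptide interaction with purified His-tagged BRD4.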
On the technique in general: Bead proximity is the source of the signal in Alpha formats.

The subject of assay [1] is Raji, human Burkitts lymphoma cells. The assay can be described thus: Cell-MTS proliferation assay, Raji. Type of assay: cell-based. To be noted: Homo sapiens, 168 hr. Summed up: (§1)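 Cells were seeded per 96-well at densities giving ~90% confluence by day 7 (Raji 15,000, HL-60 5,000, NCI-H460 3,000) and dosed 24 hr later with an 11-point dilution, 100 μM to 2.0 nM final. Seven-day MTS colorimetric read at OD490; IC50 from background-subtracted, DMSO-normalised values.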
For orientation: Tetrazolium assays rely on reduction of a dye to a coloured formazan, in cell work by metabolically active cells.

Assay [2] relates to HL-60, human proleukemia cells. The assay can be described thus: Cell-MTS proliferation assay, HL-60. Type of assay: cell-based. The conditions noted are these: Homo sapiens, 168 hr. Put shortly:
as §1

The subject of assay [3] is NCI-H460, human non-small cell lung cancer cells. As to the kind of experiment: Cell-MTS proliferation assay, NCI-H460. Type of assay: cell-based. The conditions noted are these: Homo sapiens, 168 hr. As to the method:
The Cell-MTS assay is a 7-day plate-based colorimetric assay which quantifies the amount of newly generated NADH in the presence or absence of test compound. The NADH level is used for the quantification of cancer cell proliferation.
Established cancer cell lines with a variety of driving mutations were obtained from American Type Culture Collection (ATCC) and routinely passaged according to ATCC protocols. For routine assay, these cells were seeded at densities which enabled ˜90% confluence after 7 days of culture. Raji, human Burkitts lymphoma cells, (cMYC) were seeded at 15,000 cells per 96-well. HL-60, human proleukemia cells, (NRAS, p16, p53, c-Myc amplified) were seeded at 5,000 cells per 96-well. NCI-H460, human non-small cell lung cancer cells, (KRAS, PIK3CA, STLK11, p16) were seeded at 3,000 cells per 96-well. 24 hr after plating, cells received an 11-point dilution of test compound with final concentration ranges from 100 μM to 2.0 nM. […] At the end of this incubation period, 80 μL of media is removed and 20 μL of CellTiter 96® AQueous Non-Radioactive Cell Proliferation Assay soln (Promega) was added. The cells were incubated until the OD490 was >0.6. IC50 values were calculated using the IDBS XLfit software package and include background subtracted OD490 values and normalization to DMSO controls. Cellular proliferation IC50 values were uploaded and archived using the Chem Biography Platform.

[4] abbreviates: in vitro enzyme inhibition assay.
Setting [5] is: NCI-H460, Cell-MTS proliferation.
Setting [6] is: Raji, Cell-MTS, class symbols A/B/C.
Where [7] appears, read: HL-60, Cell-MTS, class symbols A/B/C.
Where [8] appears, read: NCI-H460, Cell-MTS, class symbols A/B/C.
[9] abbreviates: Cell-MTS proliferation, Raji cells.
Where [10] appears, read: Cell-MTS proliferation, HL-60 cells.
Where [11] appears, read: Cell-MTS proliferation, NCI-H460 cells.

As to `CCS(=O)(=O)Nc1ncc(OCC2CC2)c(-c2cn(C)c(=O)c3occc23)n1` [Example 264, N-[5-(cyclopropylmethoxy)-4-(6-methyl-7-oxofuro[2,3-c]pyridin-4-yl)pyrimidin-2-yl]ethanesulfonamide], the IC50 (commonly the concentration that gives 50% inhibition) against BRD4(BD1) (setting [4]) was below 0.5 µM; in assay [1] (Raji, Cell-MTS proliferation) it was below 0.5 µM; in assay [2] (HL-60, Cell-MTS proliferation), below 0.5 µM; in assay [3] (setting [5]), above 5 µM.
Turning to `CCS(=O)(=O)c1ccc(OCC2CC2)c(-c2cn(C)c(=O)c3ccc(-c4cnn(C)c4)cc23)c1` [Example 82, 4-[2-(cyclopropylmethoxy)-5-ethylsulfonylphenyl]-2-methyl-6-(1-methylpyrazol-4-yl)isoquinolin-1-one], the 50% inhibitory concentration (IC50) is below 0.5 µM on BRD4(BD1) (class symbols A/B/C), below 0.5 µM in assay [1] (setting [6]), below 0.5 µM in assay [2] (setting [7]) and 0.5 to 5 µM in assay [3] (setting [8]).
Take `CCS(=O)(=O)c1ccc(NCC2CC2)c(-c2cc(C)c(=O)n(C)c2)c1` [Example 465, 5-[2-(cyclopropylmethylamino)-5-ethylsulfonylphenyl]-1,3-dimethylpyridin-2-one]: the 50% inhibitory concentration (IC50) is below 0.5 µM on BRD4(BD1) (setting [4]), below 0.5 µM in assay [1] (setting [9]), below 0.5 µM in assay [2] (setting [10]) and above 5 µM in assay [3] (setting [11]).
Turning to `C#Cc1cc(-c2cc(S(=O)(=O)CC)ccc2OCC2CC2)cn(C)c1=O` [Example 284, 5-[2-(cyclopropylmethoxy)-5-ethylsulfonylphenyl]-3-ethynyl-1-methylpyridin-2-one], the IC50 on BRD4(BD1) (setting [4]) is below 0.5 µM; in assay [1] (Raji, Cell-MTS proliferation), 0.5 to 5 µM; in assay [2] (HL-60, Cell-MTS proliferation), 0.5 to 5 µM; in assay [3] (setting [5]), above 5 µM.
With `Cc1cc(-c2cc(OCC3CC3)cc(S(C)(=O)=O)c2)cn(C)c1=O` [Example 325, 5-[3-(cyclopropylmethoxy)-5-methylsulfonylphenyl]-1,3-dimethylpyridin-2-one], the IC50 at BRD4(BD1) (setting [4]) is below 0.5 µM; in assay [1] (Raji, Cell-MTS proliferation), 0.5 to 5 µM; in assay [2] (HL-60, Cell-MTS proliferation), 0.5 to 5 µM; in assay [3] (setting [5]), above 5 µM.
In the case of `Cc1cc(-c2cc(NS(C)(=O)=O)ccc2OC2CCCOC2)cn(C)c1=O` (centres unmarked) [Example 446, N-[3-(1,5-dimethyl-6-oxopyridin-3-yl)-4-(oxan-3-yloxy)phenyl] methanesulfonamide], the half-inhibitory concentration (IC50) at BRD4(BD1) (setting [4]) was below 0.5 µM; in assay [1] (setting [9]) it was below 0.5 µM; in assay [2] (setting [10]), below 0.5 µM; in assay [3] (setting [11]), above 5 µM.
Consider `Cn1cc(-c2cn(CS(C)(=O)=O)c(=O)cc2OCC2CC2)c2ccccc2c1=O` [Example 384, 4-[4-(cyclopropylmethoxy)-1-(methylsulfonylmethyl)-6-oxopyridin-3-yl]-2-methylisoquinolin-1-one], for which the IC50 on BRD4(BD1) (setting [4]) was below 0.5 µM; in assay [1] (setting [9]) it was 0.5 to 5 µM; in assay [2] (setting [10]), below 0.5 µM; in assay [3] (setting [11]), above 5 µM.
For `COc1cc(F)c(CS(C)(=O)=O)cc1-c1cn(C)c(=O)c2ccc(-c3cnn(C)c3)cc12` [Example 88, 4-[4-fluoro-2-methoxy-5-(methylsulfonylmethyl)phenyl]-2-methyl-6-(1-methylpyrazol-4-yl)isoquinolin-1-one], the IC50 on BRD4(BD1) (class symbols A/B/C) is below 0.5 µM; in assay [1] (setting [6]) it was below 0.5 µM; in assay [2] (setting [7]), below 0.5 µM; in assay [3] (setting [8]) it was above 5 µM.
Regarding `Cc1cc(-c2cc(S(C)(=O)=O)ccc2OC2CCOCC2)cn(C)c1=O` [Example 420, 1,3-dimethyl-5-[5-methylsulfonyl-2-(oxan-4-yloxy)phenyl]pyridin-2-one], the IC50 against BRD4(BD1) (setting [4]) is below 0.5 µM; in assay [1] (setting [9]), 0.5 to 5 µM; in assay [2] (setting [10]), below 0.5 µM; in assay [3] (setting [11]) it was above 5 µM.
On to `CN(C)c1cc(-c2cc(NS(C)(=O)=O)ccc2Oc2ccc(F)cc2F)cn(C)c1=O` [Example 463, N-[4-(2,4-difluorophenoxy)-3-[5-(dimethylamino)-1-methyl-6-oxopyridin-3-yl]phenyl]methanesulfonamide], for which the IC50 was below 0.5 µM against BRD4(BD1) (setting [4]), below 0.5 µM in assay [1] (setting [9]), below 0.5 µM in assay [2] (setting [10]) and above 5 µM in assay [3] (setting [11]).
In the case of `CCS(=O)(=O)Nc1ccnc(-c2cn(C)c(=O)c3ccc(-c4cnn(C)c4)cc23)c1` [Example 213, N-[2-[2-methyl-6-(1-methylpyrazol-4-yl)-1-oxoisoquinolin-4-yl]pyridin-4-yl]ethanesulfonamide], the 50% inhibitory concentration (IC50) against BRD4(BD1) (setting [4]) is below 0.5 µM; in assay [1] (Raji, Cell-MTS proliferation), 0.5 to 5 µM; in assay [2] (HL-60, Cell-MTS proliferation), 0.5 to 5 µM; in assay [3] (setting [5]), above 5 µM.
Take `CCS(=O)(=O)Nc1cc(-c2cn(C)c(=O)c3ccc(-c4cnn(C)c4)cc23)c(OCC2CC2)cc1F` [Example 209, N-[4-(cyclopropylmethoxy)-2-fluoro-5-[2-methyl-6-(1-methylpyrazol-4-yl)-1-oxoisoquinolin-4-yl]phenyl]ethanesulfonamide]: the IC50 at BRD4(BD1) (setting [4]) is below 0.5 µM; in assay [1] (Raji, Cell-MTS proliferation), below 0.5 µM; in assay [2] (HL-60, Cell-MTS proliferation) it was below 0.5 µM; in assay [3] (setting [5]), above 5 µM.
For `CCS(=O)(=O)Nc1ncc(OCC2CC2)c(-c2cn(C)c(=O)c3c2CCCC3)n1` [Example 164, N-[5-(cyclopropylmethoxy)-4-(2-methyl-1-oxo-5,6,7,8-tetrahydroisoquinolin-4-yl)pyrimidin-2-yl]ethanesulfonamide], the IC50 is below 0.5 µM on BRD4(BD1) (setting [4]); below 0.5 µM in assay [1] (Raji, Cell-MTS proliferation); 0.5 to 5 µM in assay [2] (HL-60, Cell-MTS proliferation); above 5 µM in assay [3] (setting [5]).
As for `Cn1cc(-c2cc(S(C)(=O)=O)ccc2N[C@H]2CC[C@H](O)CC2)c2ccccc2c1=O` [Example 192, 4-[2-[(trans-4-hydroxycyclohexyl)amino]-5-methylsulfonylphenyl]-2-methylisoquinolin-1-one], the IC50 against BRD4(BD1) (setting [4]) was below 0.5 µM; in assay [1] (Raji, Cell-MTS proliferation) it was below 0.5 µM; in assay [2] (HL-60, Cell-MTS proliferation) it was below 0.5 µM; in assay [3] (setting [5]), above 5 µM.
Consider `CCS(=O)(=O)Nc1ccc(Oc2ccc(F)cc2F)c(-c2cc(N(C)C)c(=O)n(C)c2)c1` [Example 464, N-[4-(2,4-difluorophenoxy)-3-[5-(dimethylamino)-1-methyl-6-oxopyridin-3-yl]phenyl]ethanesulfonamide], for which the IC50 against BRD4(BD1) (setting [4]) was below 0.5 µM; in assay [1] (setting [9]) it was below 0.5 µM; in assay [2] (setting [10]) it was below 0.5 µM; in assay [3] (setting [11]), above 5 µM.
Turning to `Cc1cc(-c2cc(NS(C)(=O)=O)ccc2O[C@H]2CC[C@@H](O)CC2)cn(C)c1=O` [Example 434, N-[3-(1,5-dimethyl-6-oxopyridin-3-yl)-4-(cis-4-hydroxycyclohexyl)oxyphenyl] methanesulfonamide], the IC50 against BRD4(BD1) (setting [4]) was below 0.5 µM; in assay [1] (setting [9]), 0.5 to 5 µM; in assay [2] (setting [10]), 0.5 to 5 µM; in assay [3] (setting [11]), above 5 µM.
For `CCS(=O)(=O)Nc1cnc(Oc2ccc(F)cc2F)c(-c2cn(C)c(=O)c3occc23)c1` [Example 256, N-[6-(2,4-difluorophenoxy)-5-(6-methyl-7-oxofuro[2,3-c]pyridin-4-yl)pyridine-3-yl]ethanesulfonamide], the IC50 on BRD4(BD1) (setting [4]) is below 0.5 µM; in assay [1] (Raji, Cell-MTS proliferation), below 0.5 µM; in assay [2] (HL-60, Cell-MTS proliferation) it was below 0.5 µM; in assay [3] (setting [5]), above 5 µM.
With `Cc1cc(-c2cc(N(C3COC3)S(C)(=O)=O)ccc2Oc2ccc(F)cc2F)cn(C)c1=O` [Example 230, N-[4-(2,4-difluorophenoxy)-3-(1,5-dimethyl-6-oxopyridin-3-yl)phenyl]-N-(oxetan-3-yl)methanesulfonamide], the IC50 is below 0.5 µM at BRD4(BD1) (setting [4]); below 0.5 µM in assay [1] (Raji, Cell-MTS proliferation); below 0.5 µM in assay [2] (HL-60, Cell-MTS proliferation); above 5 µM in assay [3] (setting [5]).
As for `CCS(=O)(=O)Nc1ncc(OCC2CC2)c(-c2cn(C)c(=O)c3ccccc23)n1` [Example 155, N-[5-(cyclopropylmethoxy)-4-(2-methyl-1-oxoisoquinolin-4-yl)pyrimidin-2-yl]ethanesulfonamide], the IC50 against BRD4(BD1) (setting [4]) is below 0.5 µM; in assay [1] (Raji, Cell-MTS proliferation), below 0.5 µM; in assay [2] (HL-60, Cell-MTS proliferation) it was below 0.5 µM; in assay [3] (setting [5]), above 5 µM.
Consider `CCS(=O)(=O)Nc1ccc(Oc2ccc(F)cc2F)c(-c2cc(OC)c(=O)n(C)c2)c1` [Example 443, N-[4-(2,4-difluorophenoxy)-3-(5-methoxy-1-methyl-6-oxopyridin-3-yl)phenyl]ethanesulfonamide], for which the IC50 on BRD4(BD1) (setting [4]) is below 0.5 µM; in assay [1] (setting [9]), below 0.5 µM; in assay [2] (setting [10]) it was below 0.5 µM; in assay [3] (setting [11]), above 5 µM.

Source of the values: patent US10023592B2, “Bromodomain inhibitors” (Celgene Quanticel Research, Inc., priority 2013, dated 2018).
